From ChEMBL document CHEMBL1201862, “PubChem BioAssay data set” (2004)
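Test compounds were applied to cells in 96-well plates for 48 hours at 5 doses. Abbreviation: GI50, concentration required for 50% inhibition of growth.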 The source made the active and inactive calls. Cut-off read from the data, not from the text of the source: active = GI50 up to about 1.1 µM and inactive = higher.

Experiments:
Assay in all cases: DTP human tumour cell line panel, 48 h
EKVX = system: EKVX
MCF7 = system: MCF7
T47D = system: T47D
OVCAR-8 = system: OVCAR-8
NCI/ADR-RES = system: NCI/ADR-RES
PC-3 = system: PC-3
M14 = system: M14
RPMI-8226 = system: RPMI-8226
ACHN = system: ACHN
Hs-578T = system: Hs-578T
SF-295 = system: SF-295
SK-OV-3 = system: SK-OV-3
MDA-MB-435 = system: MDA-MB-435
K562 = system: K562
SN12C = system: SN12C
NCI-H522 = system: NCI-H522
SF-539 = system: SF-539
OVCAR-4 = system: OVCAR-4

Measured: GI50

CCOP(=O)(OCC)OC1CC(n2cc(C)c(=O)n(C)c2=O)OC1CO[Si](C)(C)C(C)(C)C (stereo not drawn)
inactive: EKVX 24.4 µM | MCF7 73.1 µM | T47D 17.8 µM | OVCAR-8 > 100 µM | NCI/ADR-RES 46.5 µM | PC-3 29.1 µM | M14 > 100 µM | RPMI-8226 25.2 µM | ACHN > 100 µM | Hs-578T 46.6 µM | SF-295 67 µM | SK-OV-3 > 100 µM | MDA-MB-435 > 100 µM | K562 48.4 µM | SN12C 7.06 µM | NCI-H522 32.1 µM | SF-539 > 100 µM | OVCAR-4 > 100 µM

Cc1ccc(O)c(C2=NNC(c3cccc(Br)c3)C2)c1 (stereo not drawn)
inactive: EKVX 35.9 µM | MCF7 33.8 µM | T47D 35.6 µM | OVCAR-8 98.9 µM | NCI/ADR-RES 48.1 µM | PC-3 45.8 µM | M14 > 100 µM | RPMI-8226 21.9 µM | ACHN 34.3 µM | Hs-578T 37.3 µM | SF-295 61 µM | SK-OV-3 34.3 µM | MDA-MB-435 19.8 µM | K562 38 µM | SN12C 52.6 µM | NCI-H522 28.5 µM | SF-539 74.1 µM

CC#C[C@]1(O)CCC2[C@@H]3CCC4=CC(=O)CCC4=C3[C@@H](c3ccc(N(C)C)cc3)C[C@@]21C (stereo partly drawn)
inactive: EKVX 13.2 µM | MCF7 5.27 µM | T47D 6.84 µM | OVCAR-8 26.5 µM | NCI/ADR-RES 11.5 µM | PC-3 21.7 µM | M14 13.8 µM | RPMI-8226 2.02 µM | ACHN 18.7 µM | Hs-578T 13 µM | SF-295 10.7 µM | SK-OV-3 18.3 µM | MDA-MB-435 12.2 µM | K562 20.9 µM | SN12C 21.8 µM | SF-539 12.6 µM | OVCAR-4 6.37 µM

S=C1N(/N=C/c2c3ccccc3cc3ccccc23)C(=N\c2ccccc2)/C(=N/c2ccccc2)N1c1ccccc1
inactive: EKVX > 100 µM | MCF7 > 100 µM | T47D > 100 µM | OVCAR-8 > 100 µM | NCI/ADR-RES > 100 µM | PC-3 > 100 µM | M14 > 100 µM | RPMI-8226 > 100 µM | Hs-578T > 100 µM | SF-295 > 100 µM | SK-OV-3 > 100 µM | MDA-MB-435 > 100 µM | K562 > 100 µM | SN12C > 100 µM | NCI-H522 > 100 µM | SF-539 > 100 µM
